This passage reports AC50 results from PubChem BioAssay AID504882 (Broad Institute, 2011).

Inconclusive results are not listed. Activity calls are given as the source filed them. How the calls were made is not given here.

This test relates to EBV lymphoblastoid cells (LCL) viability, plate reader. As to the kind of experiment: LCL viability reduction – cell-based, plate reader, cherry-picks, set 2, cytotoxicity control, dose response (AID 504882).
Broadly, the AC50 is the midpoint of the concentration-response curve, whichever way the signal moves. Take `C#CCN(C[C@@H]1[C@@H](OC(=O)NCc2ccccc2F)[C@@H](OC(=O)NCc2ccccc2F)Cn2c(=O)ccc(=O)n21)S(=O)(=O)c1ccc(C)cc1`: the AC50 was 3.8 µM. For `CCN(CC)CCC(=O)N1C/C(=C/c2ccccc2)C(=O)/C(=C\c2ccccc2)C1`, the half-maximal activity concentration (AC50) is 1.36 µM. As for `CCOC(=O)c1cnc(-n2nc(C)cc2C)nc1NNc1cc(C)nc(-c2ccccc2)n1`, the AC50 was 3.73 µM. In the case of `CC(=O)c1ccc(-c2nc3c4ccccc4ccn3c2C(C)=O)o1` it was 0.371 µM; in that of `CCn1c2ccccc2c2cc(/C=N/NC(=O)c3ccncc3)ccc21`, 3.31 µM. For `CCOc1ccc(C(C)=O)cc1COc1cccnc1[N+](=O)[O-]`, the AC50 was > 19.5 µM (inactive). As to `COc1cc(C(=O)Oc2ccccc2/C=N/NC(=O)c2ccc(C)c(Cl)c2)cc(OC)c1OC`, the AC50 was 12.7 µM. In the case of `O=C(N/N=C/c1sc2ccccc2c1O)c1cccc2ccccc12` it was 1.71 µM. In the case of `CC(=NNC(=S)N1CCCC1)c1ccccn1` it was 0.037 µM; in that of `COc1ccc(C(=O)NC2CCCc3c2cnn3-c2cccc(C)c2C)c(OC)n1` (stereo not drawn), 1.22 µM. With `COc1ccc(Cc2nnc(N/N=C/c3ccc(O)cc3)[nH]c2=O)cc1OC` the figure was 4.05 µM.

As to `C=C(C(=O)c1ccccc1)C(CC(=O)c1ccccc1)c1ccccc1` (stereo not drawn), the AC50 is 3.79 µM. With `COc1cc(C=C2CCCC(=Cc3ccc(OCC4CO4)c(OC)c3)C2=O)ccc1OCC1CO1` (stereo not drawn), the AC50 is 5.45 µM. Take `CCc1ccc(Nc2n[n+](-c3ccccc3)c(-c3c(Cl)cccc3Cl)s2)cc1`: the AC50 is 15 µM. On to `C=CCn1c(C)c(C(C)=O)c(N2CCN(C(c3ccccc3)c3ccccc3)CC2)nc1=S`, for which the AC50 was > 19.5 µM (inactive). `CN1CCN(/N=C/c2ccc(N(c3ccccc3)c3ccccc3)cc2)CC1`: the AC50 is 0.354 µM. With `N#Cc1c(Oc2ccc3ccccc3c2)sc(C(=O)c2ccccc2)c1N` the figure was 20 µM. As for `CC(C)C(=O)NC(c1ccc(Cl)cc1Cl)c1ccc2cccnc2c1O` (stereo not drawn), the AC50 was 2.28 µM. With `Cc1ccc2[nH]c3c(N4CCN(Cc5ccccc5)CC4)ncnc3c2c1`, the half-maximal activity concentration (AC50) was 10.6 µM. With `NC(Cc1ccc(O)cc1)C(=O)NN=Cc1ccc(N(CCCl)CCCl)cc1` (stereo not drawn), the concentration at half-maximal activity (AC50) was 0.983 µM. `CCc1sc(C(=O)Nc2nc(-c3ccccn3)cs2)cc1C`: the AC50 was 7.43 µM. With `S=C(NCCCN1CCOCC1)N1CCN(c2nc(-c3ccc(Cl)cc3)cs2)CC1` the figure was 12.9 µM; with `CCCCC(=O)NC(c1ccc(OC)c(OC)c1)c1ccc2cccnc2c1O` (stereo not drawn), 5.63 µM; with `C=CCn1c(O)c(N=NC(=S)Nc2cccc(C)c2)c2ccccc21`, 2.48 µM. For `COc1ccc(-n2nc(C(=O)c3cccs3)cc(-c3nc4ccccc4[nH]3)c2=N)cc1`, the AC50 was 8.9 µM.

Turning to `CCN1CCN(Cc2ccc(NC(=O)c3ccc(C)c(/C=C/c4cnc(Nc5cc(N6CCNCC6)nc(C)n5)cn4)c3)cc2C(F)(F)F)CC1`, the AC50 is 9.23 µM. Regarding `O=C(N/N=C/c1c(O)ccc2ccccc12)c1ccc(Br)o1`, the AC50 was 6.22 µM.

In the case of `Cc1c(C(=O)Nc2nc(-c3ccccn3)cs2)oc2ccccc12`, the AC50 is 11 µM. With `Cc1cc(N/N=C\c2ccc(Br)cc2)nc(-n2nc(C)cc2C)n1` the figure was 4.81 µM; with `CN1C(=O)N(C)c2ccc(C=O)c3cccc1c23`, 5.99 µM. Take `CC(=O)Nc1nc(C)c(-c2csc(Nc3ccc(O)cc3)n2)s1`: the concentration at half-maximal activity (AC50) was 19.4 µM. For `CCN(CC)c1ccc(/C=N/NC(=O)c2ccc3nc[nH]c3c2)c(O)c1`, the AC50 is 4.14 µM.

Regarding `CCCC(=O)NC(c1cccc([N+](=O)[O-])c1)c1ccc2cccnc2c1O` (stereo not drawn), the AC50 is 3.51 µM.

In the case of `O=S(=O)(c1ccccc1)N1CCN(c2cc(-c3ccccc3)nc3ncnn23)CC1`, the AC50 was > 19.5 µM (inactive). For the molecule `O=C(/C=C/c1ccco1)Oc1cc(Br)cc(/C=N/NC(=O)c2ccccc2O)c1`, the AC50 is 6.29 µM. In the case of `CC(C)OC(=O)c1ccc(NCc2cc(O)ccc2O)cc1Cl` it was 5.06 µM; in that of `C=CCNC(=S)N/N=C(\C)c1ccccn1`, 0.13 µM. On to `CC(=NNC(=S)N1CCCCCC1)c1ccccn1`, for which the AC50 was 0.354 µM. Take `N#Cc1ccc(-c2csc(NNC(=O)c3ccc(Br)cc3)n2)cc1`: the AC50 was 5.38 µM. Turning to `CCOC(=O)c1c(C)[nH]c(C(=O)N/N=C\c2ccccc2O)c1C`, the AC50 is 6.7 µM.

For `O=C(Nc1nc(-c2ccccn2)cs1)c1ccc(Br)s1`, the AC50 is 1.29 µM. Consider `c1ccc(-c2cccc(-c3ccccn3)n2)nc1`, for which the AC50 is 1.69 µM. In the case of `O=c1[nH]c(=O)n([C@H]2C[C@H](O)[C@@H](CO)O2)cc1C(F)(F)F`, the AC50 is 1.51 µM.

In the case of `O=C(/C=C1\NC2(CCCC2)Cc2ccccc21)C(=O)N/N=C/c1ccccc1O`, the half-maximal activity concentration (AC50) was 18 µM. Turning to `N#CC(C#N)=NNc1ccc(-n2ccc(C(F)(F)F)n2)cc1`, the AC50 is 2.53 µM.

`CC(=O)OC1CCC2(C)C(CCC3C4CC=C(C(C)=O)C4(C)OC(=O)CC32)C1` (stereo not drawn): the half-maximal activity concentration (AC50) is 3.85 µM. For `Cc1ccc2[nH]c(C(=O)N/N=C/c3ccccc3O)c(C)c2c1`, the AC50 was 3.05 µM. In the case of `CCn1c2ccccc2c2cc(/C=C(/C#N)C(N)=S)ccc21` it was 0.998 µM. For `COc1ccc(/C=C/c2nc3ccccc3n2C)cc1`, the AC50 was 3.28 µM. With `Cc1ccc(/C=N/NC(=O)c2cc(-c3ccccc3)nc3ccccc23)o1`, the AC50 is > 19.5 µM (inactive). On to `O=C(N/N=C/c1ccc(O)cc1O)c1ccc(CN2C(=O)c3cccc4cccc2c34)cc1`, for which the AC50 was 3.53 µM. With `CC(=NNC(=S)N1CCCCC1)c1cccc(C)n1` the figure was 2.37 µM.

Consider `CCOC(=O)c1c(CSc2nc(C)cc(C)c2C#N)n(C)c2cc(Br)c(OC(C)=O)cc12`, for which the AC50 is 14.6 µM. With `CCN(CC)c1ccc(/C=N/Nc2nc3ccccc3[nH]2)c(O)c1` the figure was 2.74 µM; with `CCN(CC)C(=O)c1ccc(NC(=O)Nc2ccccc2F)cc1`, 2.63 µM; with `S=C(NN=Cc1ccccn1)Nc1ccccn1`, 9.02 µM.

For `O=C(Nc1nnc(SCc2ccc(F)cc2)s1)c1ccccn1`, the AC50 is 14.1 µM. With `c1ccc(C2=NNC(=NC3CC3)SC2)cc1`, the half-maximal activity concentration (AC50) is 11.9 µM. With `c1ccc(C(=NNc2nc3ccccc3s2)c2ccccn2)cc1`, the AC50 is 1.06 µM. As for `C=C1C(=O)C2=CC1CCC(=O)C1(C)CCC(OC(C)=O)C(C)(C)C1CC2O` (stereo not drawn), the AC50 is 5.14 µM. For `C[n+]1c2n(c3ccccc31)N=C(c1cc(C(C)(C)C)c(O)c(C(C)(C)C)c1)CS2`, the AC50 is 7.62 µM. In the case of `Clc1ccc(SCc2cc(N3CCOCC3)nc(-c3ccccn3)n2)cc1`, the AC50 is 4.05 µM. Consider `COc1ccc(N/N=C/c2c(C(=O)O)ccc3ccccc23)cc1`, for which the AC50 is 3.99 µM.

For `COc1ccc(O)c(/C=N/Nc2nc(Nc3ccccc3)nc(-n3nc(C)cc3C)n2)c1`, the AC50 was 10.7 µM. As for `COc1ccc(C(NC(C)=O)c2cc(Cl)c3cccnc3c2O)cc1` (stereo not drawn), the AC50 is 6.92 µM. Take `COc1ccccc1-c1nnc(Sc2nc([N+](=O)[O-])nn2C)o1`: the AC50 was 8.25 µM. For `CC(=O)NC(c1ccc(Cl)cc1)c1ccc2cccnc2c1O` (stereo not drawn), the AC50 was 1.21 µM. As to `O=C(NC(Nc1nc2ccc([N+](=O)[O-])cc2s1)(C(F)(F)F)C(F)(F)F)c1ccccc1`, the concentration at half-maximal activity (AC50) is 0.298 µM.

For `COc1cccc(/C=N/Nc2ncnc3c2ncn3Cc2ccccc2)c1O`, the AC50 is 2.21 µM.

In the case of `CCn1c2ccccc2c2cc(/C=N/n3cn[nH]c3=S)ccc21`, the AC50 is 3.79 µM. Consider `CCN1CCN(Cc2ccc(NC(=O)c3ccc(C)c(NC(=O)c4c[nH]c5cc(C(F)(F)F)ccc5c4=O)c3)cc2C(F)(F)F)CC1`, for which the AC50 is 3.95 µM. In the case of `O=C(N/N=C/c1c(O)ccc2ccccc12)c1cccnc1` it was 10.5 µM; in that of `Fc1ccc2[nH]c3c(N4CCSCC4)ncnc3c2c1`, 17.5 µM; in that of `Cc1cc(Sc2nnc(/N=C/N(C)C)s2)c2ccccc2n1`, 9.16 µM. In the case of `CCCN(CCC)S(=O)(=O)c1ccc(C(=O)Nc2nnc(-c3cc(OC)cc(OC)c3)o2)cc1`, the AC50 was > 19.5 µM (inactive). In the case of `O=C(CF)N(O)c1ccc(C=Cc2ccccc2)cc1` it was 4.21 µM; in that of `CC(=NNC(=S)Nc1cccc(Cl)c1)c1ccccn1`, 0.138 µM; in that of `COc1cccc(/C=N/NC(=O)c2[nH]nc3c2CCc2ccccc2-3)c1O`, 4.51 µM. With `COc1ccc(/C=N/Nc2cc(C)nc3ccc(OC)cc23)c(OC)c1` the figure was 3.47 µM.

For the molecule `COc1cccc(/C=N/Nc2nccnc2Cl)c1O`, the AC50 is 3.86 µM.

For `Cc1ccc2nc(-c3ccccn3)[nH]c2c1`, the AC50 is 19.5 µM. With `O=S(=O)(c1ccc2c(c1)C(=NO)c1cc(S(=O)(=O)N3CCCCC3)ccc1-2)N1CCCCC1` the figure was 1.2 µM; with `O=c1cc(-c2ccccc2)oc2ccc3ccccc3c12`, 8.53 µM. Regarding `Cc1nc2c(-c3ccc(Cl)cc3)c(C)[nH]n2c(=O)c1Cc1ccccc1`, the AC50 is 6.96 µM. Consider `CC(=NNC(=S)Nc1ccccc1Cl)c1ccccn1`, for which the AC50 was 0.055 µM. Turning to `CCCc1cc(=O)n2[nH]cc(-c3ccc(Cl)cc3)c2n1`, the AC50 is 8.45 µM. In the case of `NC(=S)NN=Cc1nccc2c(N)cccc12` it was 1.04 µM; in that of `Cc1onc(-c2ccccc2)c1C(=O)NC(=S)NNC(=O)c1ccc(O)cc1O`, > 19.5 µM (inactive). Take `NC(=S)NN=Cc1nccc2c(C(F)(F)C(F)(F)C(F)(F)F)cccc12`: the AC50 was 0.452 µM. On to `COc1ccc(C=C2CS(=O)(=O)CC(=Cc3ccc(OC)cc3)C2=O)cc1`, for which the AC50 is 0.675 µM. In the case of `CCn1c2ccccc2c2cc(/C=N/n3c(-c4cc(C)[nH]n4)n[nH]c3=S)ccc21` it was 6.59 µM; in that of `CC(=NNC(=S)N1CC2CCC(CC2)C1)c1nccs1`, 0.362 µM; in that of `COc1ccc(-c2nc(-c3cccs3)no2)cc1`, > 19.5 µM (inactive). Regarding `O=C(c1cccc(F)c1)N1CCN(c2cccc(Cl)c2)CC1`, the AC50 was 3.11 µM. On to `CCn1c2ccccc2c2cc(/C=N/n3c(C)nnc3C)ccc21`, for which the AC50 was > 19.5 µM (inactive). On to `COc1cccc(/C=N/Nc2ncnc(Cl)c2N)c1O`, for which the concentration at half-maximal activity (AC50) is 3.73 µM. With `COc1ccccc1/C=C/C(=O)c1ccc(Cl)cc1`, the AC50 was > 19.5 µM (inactive).

As for `CCCCC(=O)NC(c1ccc(Cl)cc1)c1ccc2cccnc2c1O` (stereo not drawn), the AC50 was 3.65 µM.
